The text below walks through data of patent US5302700A, “Radiohalogenation conjugate technology” (Duke University, priority 1988, dated 1994).

For series [1] the following is noted: aqueous solution; background; cited from earlier work.
Series [2] in a line: Whole body clearance of INA and iodide (FIG. 1). The format is in vivo, mice. The conditions noted are these: vs iodide. The protocol:
(§1) The method of choice for comparing the pharmacokinetics of two radioiodinated products (or two samples of the same compound, each sample radioiodinated using a different method) is to administer both to the same group of animals, labeling the first with ^125 I and the second with ^131 I. By performing "paired-label" experiments, one can correct for systematic errors such as incomplete thyroid sampling (less than 10 mg in a mouse) which could make […] comparisons difficult.
(§2) In the first paired-label study, groups of mice were injected with both [^131 ]iodide and 5-^125 I]iodonicotinic acid (hereinafter INA), the labeled substrate which is attached to proteins in the SPC procedure.
One approach for decreasing the retention of a nuclide in normal tissues following the administration of labeled antibodies is to couple the isotope in a chemical form which will be excreted rapidly after antibody catabolism. Degradation of antibodies labeled using the SPC method should result in the production of 5-iodonicotinic acid (INA).

Series [3] in a line: Paired-label study: thyroid and stomach uptake of [125I]INA and [131I]iodide in mice. It is filed as in vivo.
Text: When radioiodine is released from proteins following in vivo administration, loss of label occurs (dehalogenation). Since free iodide is taken up avidly by the thyroid and, at early time points, localizes in the stomach, uptake of radioiodine by these tissues is often used as an indicator of dehalogenation in vivo.
as §1, §2

For series [4] the following is noted: background; cited from earlier work.

In the case of `O=C(CCc1ccc(O)c([125I])c1)ON1C(=O)CCC1=O` [Bolton-Hunter], the “hydrolysis of the active ester” value in series [1] is on record as “rapid hydrolysis of the active ester in aqueous solution”.
For `O=C(O)c1cncc([125I])c1` [INA, 5-[^125 I]iodonicotinic acid], the “whole body clearance compared with iodide” value in series [2] is on record as “considerably faster than iodide”. Further, in series [3], the “dehalogenation in vivo of INA template” value is listed as “relatively inert to dehalogenation in vivo”. The Stomach uptake in series [3] (1 hr after injection) is 0.69 ± 0.40 percentages of the injected do; in series [3] (2 hr after injection) it was 0.53 ± 0.41 percentages of the injected do; in series [3] (4 hr after injection) it was 0.18 ± 0.03 percentages of the injected do; in series [3] (6 hr after injection), 0.24 ± 0.10 percentages of the injected do; in series [3] (24 hr after injection), 0.14 ± 0.01 percentages of the injected do. The Thyroid uptake in series [3] (1 hr after injection) is 0.13 ± 0.13 percentages of the injected do; in series [3] (2 hr after injection), 0.27 ± 0.09 percentages of the injected do; in series [3] (4 hr after injection), 0.44 ± 0.21 percentages of the injected do; in series [3] (6 hr after injection), 1.04 ± 0.24 percentages of the injected do; in series [3] (24 hr after injection), 0.67 ± 0.19 percentages of the injected do. For the same compound, the “thyroid uptake of 125I (INA), times lower than 131I (iodide)” value in series [3] (thyroid, 125I vs 131I) is recorded as 23-56 times lower. In series [3] (vs iodide), the “percentages of the injected dose localizing in thyroid and, at early time points, stomach, compared with iodide” value is listed as “significantly lower than those observed with iodide”.
As for `I` [Iodide, [^131 I]iodide, reference compound], the Stomach uptake is given as 16.56 ± 8.10 percentages of the injected do in series [3] (1 hr after injection); 12.61 ± 7.33 percentages of the injected do in series [3] (2 hr after injection); 3.53 ± 0.74 percentages of the injected do in series [3] (4 hr after injection); 4.16 ± 1.82 percentages of the injected do in series [3] (6 hr after injection); 0.06 ± 0.02 percentages of the injected do in series [3] (24 hr after injection). Also, the Thyroid uptake in series [3] (1 hr after injection) is recorded as 7.23 ± 1.27 percentages of the injected do; in series [3] (2 hr after injection) it was 7.23 ± 1.39 percentages of the injected do; in series [3] (4 hr after injection), 12.21 ± 3.27 percentages of the injected do; in series [3] (6 hr after injection), 23.64 ± 4.95 percentages of the injected do; in series [3] (24 hr after injection), 16.95 ± 4.98 percentages of the injected do.
For the compound `COC(=N)c1cc(I)c(O)c(I)c1` [Woods], the “in vivo loss of radioiodine from the protein” value in series [4] is recorded as “in vivo loss of radioiodine from the protein”.
